Experimental data as given in BindingDB's records for doi:10.1016/j.bmcl.2014.07.074 (Riken-Max Planck Joint Research Center For Systems Chemical …, 2014).
pKi: −log10 of the molar value.

Key:
[1] = Inhibition of human N-terminally His6-tagged N-acetylglucosaminyltransferase 3 expressed in HEK293T cells assessed as GN-GnGnbi-PAs molar ratio level incubated for 1 hr using 5 uM GnGnbi-PA acceptor substrate and 0.5 to 4 mM UDP-GlcNAc donor substrate by reverse phase HPLC method
[2] = Inhibition of human N-terminally His6-tagged N-acetylglucosaminyltransferase 3 expressed in HEK293T cells assessed as GN-GnGnbi-PAs molar ratio level incubated for 1 hr using 2.5 to 10 uM GnGnbi-PA acceptor substrate and 20 mM UDP-GlcNAc donor substrate by reverse phase HPLC method

| SMILES | pKi [1] | pKi [2] |
| --- | --- | --- |
| CO[C@H]1O[C@H](CO[C@H]2O[C@H](CO)[C@@H](O)[C@H](O)[C@@H]2O[C@@H]2O[C@H](CO)[C@@H](O)[C@H](O)[C@H]2NC(C)=O)[C@@H](O[C@@H]2O[C@H](CO)[C@@H](O)[C@H](O)[C@H]2NC(C)=O)[C@H](O[C@H]2O[C@H](CO)[C@@H](O)[C@H](O)[C@@H]2O[C@@H]2O[C@H](CO)[C@@H](O)[C@H](O)[C@H]2NC(C)=O)[C@@H]1O | 2.82 | 1.85 |
| CO[C@H]1O[C@H](CO[C@H]2O[C@H](CO)[C@@H](O)[C@H](O)[C@@H]2O[C@@H]2O[C@H](CO)[C@@H](O)[C@H](O)[C@H]2NC(C)=O)[C@@H](O)[C@H](O[C@H]2O[C@H](CO)[C@@H](O)[C@H](O)[C@@H]2O[C@@H]2O[C@H](CO)[C@@H](O)[C@H](O)[C@H]2NC(C)=O)[C@@H]1O | 2.85 | 2.92 |
